Laboratory results as given in patent US20140162980A1, “NOVEL MICROBIOCIDAL DIOXIME ETHER DERIVATIVES” (SYNGENTA CROP PROTECTION LLC, priority 2010, published 2014).

Tests used:
Phytophthora infestans = test: whole plant or invertebrate; type: in vivo; conditions: in Solanum lycopersicum, foliar, read-out: control of Phytophthora infestans (percent disease control compared to untreated)
[1] = test system: Phaeosphaeria nodorum (Septoria nodorum); test: Phaeosphaeria nodorum (Septoria nodorum) / wheat / leaf disc preventative (glume blotch); type: in vivo; conditions: Parastagonospora nodorum, foliar, wheat leaf segments cv Kanzler, inoculated 2 days after application, assessed 5-7 days after application, read-out: control of Phaeosphaeria nodorum (percent disease control compared to untreated)
Protocol: Phaeosphaeria Nodorum (Septoria nodorum)/Wheat/Leaf Disc Preventative (Glume Blotch): Wheat leaf segments cv Kanzler were placed on agar in a 24-well plate and sprayed with formulated test compound diluted in water at an application rate of 200 ppm. The leaf disks are inoculated with a spore suspension of the fungus 2 days after application. The inoculated test leaf disks are incubated at 20° C. and 75% relative humidity under a light regime of 12/12 h (light/dark) in a climate cabinet and the activity of a compound is assessed as percent disease control compared to untreated when an appropriate level of disease damage appears in untreated check leaf disks (5-7 days after application).

[2] = test system: Puccinia recondita f. sp. tritici; test: Puccinia recondita f. sp. tritici / wheat / leaf disc curative (brown rust); type: in vivo; conditions: foliar, 200 ppm applied 1 day after inoculation, wheat leaf segments cv Kanzler, assessed 6-8 days after application, read-out: control of Puccinia recondita f. sp. tritici, curative (percent disease control compared to untreated)
Protocol: Puccinia Recondita f. Sp. Tritici/Wheat/Leaf Disc Curative (Brown Rust): Wheat leaf segments cv Kanzler were placed on agar in 24-well plates. The leaf segments were inoculated with a spore suspension of the fungus. The plates were stored in darkness at 19° C. and 75% relative humidity. The formulated test compound diluted in water was applied at an application rate of 200 ppm 1 day after inoculation.

[3] = test system: Thanatephorus cucumeris (Rhizoctonia solani); test: Thanatephorus cucumeris (Rhizoctonia solani) / liquid culture (foot rot, damping-off); type: cell-based; conditions: PDB potato dextrose broth, 24° C., 3-4 days after application, read-out: control of Thanatephorus cucumeris (inhibition of growth, photometrically)
Protocol: Thanatephorus Cucumeris (Rhizoctonia solani)/Liquid Culture (Foot Rot, Damping-Off): Mycelia fragments of a newly grown liquid culture of the fungus are directly mixed into nutrient broth (PDB potato dextrose broth). After placing a DMSO solution of the test compounds into a 96-well microtiter plate at an application rate 200 ppm, the nutrient broth containing the fungal material was added. The test plates were incubated at 24° C. and the inhibition of growth was determined photometrically 3-4 days after application.

[4] = test system: Blumeria graminis f. sp. tritici (Erysiphe graminis f. sp. tritici); test: Blumeria graminis f. sp. tritici / wheat / leaf disc preventative (powdery mildew on wheat); type: in vivo; conditions: foliar, wheat leaf segments cv. Kanzler, inoculated 1 day after application, assessed 6-8 days after application, read-out: control of Blumeria graminis (percent disease control compared to untreated)
Protocol: Blumeria Graminis f. Sp. Tritici (Erysiphe Graminis f. Sp. Tritici)/Wheat/Leaf Disc Preventative (Powdery Mildew on Wheat):
Wheat leaf segments cv. Kanzler were placed on agar in a 24-well plate and sprayed with the formulated test compound diluted in water at an application rate of 200 ppm. The leaf disks were inoculated by shaking powdery mildew infected plants above the test plates 1 day after application. The inoculated leaf disks were incubated at 20° C. and 60% relative humidity under a light regime of 24 h darkness followed by 12 h/12 h (dark/light) in a climate chamber and the activity of a compound was assessed as percent disease control compared to untreated when an appropriate level of disease damage appears on untreated check leaf segments (6-8 days after application). The following compounds gave at least 80% control of Blumeria graminis: […]

[5] = test system: Botryotinia fuckeliana (Botrytis cinerea); test: Botryotinia fuckeliana (Botrytis cinerea) / liquid culture (gray mould); type: cell-based; conditions: Vogels broth, 24° C., 3-4 days after application, read-out: control of Botryotinia fuckeliana (inhibition of growth, photometrically)
Protocol: Botryotinia Fuckeliana (Botrytis cinerea)/Liquid Culture (Gray Mould): Conidia of the fungus from cryogenic storage were directly mixed into nutrient broth (Vogels broth). After placing a DMSO solution of test compound into a 96-well microtiter plate at an application rate 200 ppm, the nutrient broth containing the fungal spores was added. The test plates were incubated at 24° C. and the inhibition of growth was determined photometrically 3-4 days after application.

Pyrenophora teres = Pyrenophora teres / barley / leaf disc preventative (net blotch); type: in vivo; conditions: foliar, barley leaf segments cv Hasso, inoculated two days after application, assessed 5-7 days after application, read-out: control of Pyrenophora teres (disease control compared to untreated)
Protocol: Pyrenophora Teres/Barley/Leaf Disc Preventative (Net Blotch): Barley leaf segments cv Hasso are placed on agar in a 24-well plate and sprayed with formulated test compound diluted in water at an application rate of 200 ppm. The leaf segments are inoculated with a spore suspension of the fungus two days after application of the test solution. The inoculated leaf segments are incubated at 20° C. and 65% relative humidity under a light regime of 12/12 h (light/dark) in a climate cabinet and the activity of a compound is assessed as disease control compared to untreated when an appropriate level of disease damage appears in untreated check leaf segments (5-7 days after application).

Pythium ultimum = Pythium ultimum / liquid culture (seedling damping off); type: cell-based; conditions: Globisporangium ultimum, PDB potato dextrose broth, 24° C., 2-3 days after application, read-out: control of Pythium ultimum (inhibition of growth, photometrically)
Protocol: Pythium Ultimum/Liquid Culture (Seedling Damping Off): Mycelia fragments and oospores of a newly grown liquid culture of the fungus were directly mixed into nutrient broth (PDB potato dextrose broth). After placing a DMSO solution of test compound into a 96 well microtiter plate at an application rate 200 ppm, the nutrient broth containing the fungal mycelia/spore mixture was added. The test plates were incubated at 24° C. and the inhibition of growth was determined photometrically 2-3 days after application.

[6] = test system: Puccinia recondita f. sp. tritici; test: Puccinia recondita f. sp. tritici / wheat / leaf disc preventative (brown rust); type: in vivo; conditions: foliar, wheat leaf segments cv Kanzler, inoculated 1 day after application, assessed 7-9 days after application, read-out: control of Puccinia recondita f. sp. tritici, preventative (percent disease control compared to untreated)
Protocol: Puccinia Recondita f. Sp. Tritici/Wheat/Leaf Disc Preventative (Brown Rust): Wheat leaf segments cultivated variety (cv) Kanzler were placed on agar in 24-well plates and sprayed with formulated test compound diluted in water at an application rate of 200 ppm. The leaf disks were inoculated with a spore suspension of the fungus 1 day after application. The inoculated leaf segments were incubated at 19° C. and 75% relative humidity under a light regime of 12/12 h (light/dark) in a climate cabinet and the activity of a compound was assessed as percent disease control compared to untreated when an appropriate level of disease damage appears in untreated check leaf segments (7-9 days after application).

Alternaria solani = Alternaria solani / tomato / leaf disc (early blight); type: in vivo; conditions: foliar, tomato leaf disks cv. Baby, inoculated 2 days after application, assessed 5-7 days after application, read-out: control of Alternaria solani (percent disease control compared to untreated)
Protocol: Alternaria Solani/Tomato/Leaf Disc (Early Blight): Tomato leaf disks cv. Baby are placed on agar in multiwell plates (24-well format) and sprayed with the formulated test compound diluted in water at an application rate of 200 ppm. The leaf disks are inoculated with a spore suspension of the fungus 2 days after application. The inoculated leaf disks are incubated at 23° C./21° C.

Plasmopara viticola = test: whole plant or invertebrate; type: in vivo; conditions: foliar, read-out: control of Plasmopara viticola (percent disease control compared to untreated)
[7] = test system: Magnaporthe grisea (Pyricularia oryzae); test: whole plant or invertebrate; type: in vivo; conditions: foliar, read-out: control of Magnaporthe grisea (percent disease control compared to untreated)
Sclerotinia sclerotiorum = Sclerotinia sclerotiorum / liquid culture (cottony rot); type: cell-based; conditions: PDB potato dextrose broth, 24° C., 3-4 days after application, read-out: control of Sclerotinia sclerotiorum (inhibition of growth, photometrically)
Protocol: Sclerotinia Sclerotiorum/Liquid Culture (Cottony Rot) Mycelia fragments of a newly grown liquid culture of the fungus are directly mixed into nutrient broth (PDB potato dextrose broth). After placing a (DMSO) solution of test compound into a microtiter plate at an application rate 200 ppm (96-well format) the nutrient broth containing the fungal material is added. The test plates are incubated at 24° C. and the inhibition of growth is determined photometrically 3-4 days after application.

Cc1ccc2c(n1)/C(=N/OCC(C)(C)CO/N=C1\CCCc3ccc(C)nc31)CCC2 [P.02]
≥ 80%: pest or weed control at 200 ppm (Phytophthora infestans) | pest or weed control at 200 ppm [1] | pest or weed control at 200 ppm [2] | inhibition at 200 ppm [3] | pest or weed control at 200 ppm [4] | inhibition at 200 ppm [5] | pest or weed control at 200 ppm (Pyrenophora teres) | inhibition at 200 ppm (Pythium ultimum) | pest or weed control at 200 ppm [6]

Cc1ccc2c(n1)/C(=N/OCCCO/N=C1\CCCc3ccc(C)nc31)CCC2 [P.05]
≥ 80%: pest or weed control at 200 ppm (Phytophthora infestans) | pest or weed control at 200 ppm [1] | pest or weed control at 200 ppm [2] | pest or weed control at 200 ppm [4] | pest or weed control at 200 ppm (Alternaria solani) | inhibition at 200 ppm [5] | pest or weed control at 200 ppm (Pyrenophora teres) | inhibition at 200 ppm (Pythium ultimum) | pest or weed control at 200 ppm [6]

C=C(CO/N=C1\CCCc2ccc(C)nc21)CO/N=C1\CCCc2ccc(C)nc21 [P.07]
≥ 80%: pest or weed control at 200 ppm [1] | pest or weed control at 200 ppm [2] | pest or weed control at 200 ppm [4] | pest or weed control at 200 ppm (Alternaria solani) | inhibition at 200 ppm [5] | pest or weed control at 200 ppm (Pyrenophora teres) | inhibition at 200 ppm (Pythium ultimum) | pest or weed control at 200 ppm [6]

Cc1ccc2c(n1)/C(=N/OCC(C)CO/N=C1\CCCc3ccc(C)nc31)CCC2 (stereo not shown) [P.09]
≥ 80%: pest or weed control at 200 ppm (Phytophthora infestans) | pest or weed control at 200 ppm [1] | pest or weed control at 200 ppm [2] | pest or weed control at 200 ppm [4] | pest or weed control at 200 ppm (Alternaria solani) | inhibition at 200 ppm [5] | pest or weed control at 200 ppm (Pyrenophora teres) | inhibition at 200 ppm (Pythium ultimum) | pest or weed control at 200 ppm [6]

CCC(CO/N=C1\CCCc2ccc(C)nc21)CO/N=C1\CCCc2ccc(C)nc21 [P.10]
≥ 80%: pest or weed control at 200 ppm (Phytophthora infestans) | pest or weed control at 200 ppm [1] | pest or weed control at 200 ppm (Plasmopara viticola) | pest or weed control at 200 ppm [2] | pest or weed control at 200 ppm [4] | pest or weed control at 200 ppm (Alternaria solani) | inhibition at 200 ppm [5] | pest or weed control at 200 ppm (Pyrenophora teres) | inhibition at 200 ppm (Pythium ultimum) | pest or weed control at 200 ppm [6]

Cc1ccc2c(n1)/C(=N/OC[Si](C)(C)CO/N=C1\CCCc3ccc(C)nc31)CCC2 [P.20]
≥ 80%: pest or weed control at 200 ppm [1] | pest or weed control at 200 ppm [2] | inhibition at 200 ppm [3] | pest or weed control at 200 ppm [4] | pest or weed control at 200 ppm (Alternaria solani) | inhibition at 200 ppm [5] | pest or weed control at 200 ppm (Pyrenophora teres) | inhibition at 200 ppm (Pythium ultimum) | pest or weed control at 200 ppm [6]

Cc1ccc2c(n1)/C(=N/OCC(C)(C)CO/N=C1\CCCc3cccnc31)CCC2 [P.23]
≥ 80%: pest or weed control at 200 ppm (Phytophthora infestans) | pest or weed control at 200 ppm [1] | pest or weed control at 200 ppm [2] | pest or weed control at 200 ppm [4] | pest or weed control at 200 ppm (Pyrenophora teres) | inhibition at 200 ppm (Pythium ultimum) | pest or weed control at 200 ppm [6]

Cc1ccc2c(n1)/C(=N/OCCCO/N=C1\CCCc3c(C)cc(C)nc31)CCC2 [P.30]
≥ 80%: pest or weed control at 200 ppm (Phytophthora infestans) | pest or weed control at 200 ppm [1] | pest or weed control at 200 ppm (Plasmopara viticola) | pest or weed control at 200 ppm [2] | inhibition at 200 ppm [3] | pest or weed control at 200 ppm [4] | pest or weed control at 200 ppm [7] | pest or weed control at 200 ppm (Alternaria solani) | inhibition at 200 ppm [5] | pest or weed control at 200 ppm (Pyrenophora teres) | inhibition at 200 ppm (Pythium ultimum) | pest or weed control at 200 ppm [6]

Cc1ccc2c(n1)/C(=N/OCCCO/N=C1\CCCc3c(-c4ccccc4)cc(C)nc31)CCC2 [P.31]
≥ 80%: pest or weed control at 200 ppm [1] | pest or weed control at 200 ppm (Plasmopara viticola) | pest or weed control at 200 ppm [2] | inhibition at 200 ppm [3] | pest or weed control at 200 ppm [4] | pest or weed control at 200 ppm (Alternaria solani) | inhibition at 200 ppm [5] | pest or weed control at 200 ppm (Pyrenophora teres) | inhibition at 200 ppm (Pythium ultimum) | pest or weed control at 200 ppm [6]

CCOc1cc(C)nc2c1CCC/C2=N\OCCCO/N=C1\CCCc2ccc(C)nc21 [P.32]
≥ 80%: pest or weed control at 200 ppm (Phytophthora infestans) | pest or weed control at 200 ppm [1] | pest or weed control at 200 ppm (Plasmopara viticola) | pest or weed control at 200 ppm [4] | pest or weed control at 200 ppm [7] | inhibition at 200 ppm [5] | pest or weed control at 200 ppm (Pyrenophora teres) | pest or weed control at 200 ppm [6]

Cc1ccc2c(n1)/C(=N/OCC(C)(C)CO/N=C1\CCCc3c(CF)cc(C)nc31)CCC2 [P.44]
≥ 80%: pest or weed control at 200 ppm [1] | pest or weed control at 200 ppm [2] | inhibition at 200 ppm (Sclerotinia sclerotiorum) | pest or weed control at 200 ppm [4] | pest or weed control at 200 ppm [7] | inhibition at 200 ppm [5] | pest or weed control at 200 ppm (Pyrenophora teres) | inhibition at 200 ppm (Pythium ultimum) | pest or weed control at 200 ppm [6]
